Experimental data reported in article PMC5720837, “Identification of a 4-fluorobenzyl L-valinate amide benzoxaborole (AN11736) as a potential development candidate for the treatment of Animal African Trypanosomiasis (AAT)” (Bioorganic & Medicinal Chemistry Letters, 2018).

Experiments:
[1] = system: Trypanosoma congolense (T. congolense IL-3000 strain), bloodstream form; test: Whole cell Alamar Blue assay, T. congolense (72 h in vitro); assay type: cell-based; conditions: Trypanosoma congolense, 72 h, T. congolense IL-3000, 72 h in vitro Alamar Blue assay
Method: (§1) Activity of compounds 1–71 against T. congolense and T. vivax was determined using the whole cell assays as described ^6 and their IC50 values are summarized in Table 1.
(§2) [6] Assay methods for determination of T. c. and T. v. […] Culture media consisted of complete HMI-9 (IMDM) with 20% bovine serum. To ensure log growth phase, trypanosomes were sub-cultured at appropriate dilutions every 2–3 days. Bloodstream form Trypanosoma vivax (T. vivax) cannot be cultured axenically, therefore trypanosomes (T. vivax STIB719/ILRAD 560 strain) were harvested from a highly parasitemia mouse via cardiac puncture and used directly in the ex vivo drug sensitivity assay on the same day. […] Parasite starting concentrations of 2 × 10^5 (T. c.) and 4 × 10^5 (T. v.) were calculated respectively, using a cell analyzer system or haemo-cytometer, followed by quantification at 536 nm excitation and 588 nm emission wavelengths using a […] reader. Test compounds were prepared as 10 mg/mL DMSO stocks for each assay run. Compounds were assayed in at least three separate, independent test runs and an 11-point dilution curve was used to determine the IC50 values. Data points were averaged to generate sigmoidal dose-response curves and IC50 values were determined using Softmax Pro 5.2 software.

[2] = system: Trypanosoma vivax (T. vivax STIB719/ILRAD 560 strain), bloodstream form; test: Whole cell Alamar Blue assay, T. vivax (48 h ex vivo); assay type: cell-based; conditions: Trypanosoma vivax; T. vivax STIB719/ILRAD 560, 48 h ex vivo Alamar Blue assay
Method: as §1, §2

[3] = system: T. c. parasites (STIB736/IL1180 strain); test: In vivo mouse model of T. congolense infection; design: species or system NMRI female mice; conditions: for Efficacy in mouse model T. c., n/m (mice survived / total mice in group): 1 × 10 mg/kg, intraperitoneal, monitored 60 days post treatment
Method: (§3) Selected compounds were screened in both mouse and bovine in vitro metabolic stability assays (mouse S9 and bovine S9), as summarized in Table 2. These two species were chosen because the primary in vivo assays were conducted in mice, and the target animal of this research program is cattle. […] We evaluated the efficacy of selected compounds in two in vivo mouse models of infection, against T. congolense and T. vivax, respectively. Mice were infected with either 1 × 10^5 T. c. parasites or 1 × 10^4 T. v. parasites, and then treated with a test compound via intraperitoneal administration for 1, 2 or 4 consecutive days. The mice were then monitored for the presence of parasitemia for up to 60 days post treatment.[7] We tested in T. c. model first, then followed up with T. v. for interesting compounds. […] We selected compound 5 (AN11736) to progress to exploratory studies to determine the efficacy and safety in a preliminary formulation against induced infections of T. vivax and T. congolense in cattle.[8]
(§4) [7] Methods for testing compound efficacy in mouse models: In vivo mouse efficacy studies were performed at the Swiss TPH, using established mouse models of infection for T. c. and T. v. NMRI female mice were independently infected either with 1 × 10^5T. c. parasites/mouse (STIB736/IL1180 strain) or 1 × 10^4T. v. parasites/mouse (STIB719/ILRAD560 strain) using an intraperitoneal route. Parasitemia was allowed to develop over 7 days (T. c.) or 3 days (T. v.), respectively, before treatment was administered. Compounds were administered via intraperitoneal injection in 10% DMSO/water. Four mice were used per treatment group. Mice were monitored for the presence of trypanosomes, via tail blood examination microscopically with twice-per-week parasitemia checks for 60 days post treatment. Parasitemia was graded on a scale of 0–3, with 0 indicating no trypanosomes seen in 20 fields of view, 1 indicating the presence of 1–5 trypanosomes per field, 2 indicating the presence of 6–20 trypanosomes per field and 3 indicating greater than 20 trypanosomes per field. Mice scoring 2 or 3 were immediately euthanized. After 60 days, aparasitemic mice were considered cured. Untreated control mice survive on average for 10 and 6 days post infection for T. c. and T. v., respectively. All in vivo mouse experiments were conducted in accordance with the strict guidelines set out by the Swiss Federal Veterinary Office, under the ethical approval of license number #2813.

[4] = In vitro metabolic stability, mouse S9; assay type: in vitro ADME; conditions: S9 fraction
Method: as §3

[5] = In vitro metabolic stability, bovine S9; assay type: in vitro ADME; conditions: S9 fraction
Method: as §3

[6] = system: T. v. parasites (STIB719/ILRAD560 strain); test: In vivo mouse model of T. vivax infection; design: species or system NMRI female mice
Method: as §3, §4

SMILES | IC50 [1] [nM] | IC50 [2] [nM] | Efficacy in mouse model T. c., n/m (mice survived / total mice in group) [3] | microsomal CLint [4] [µL/min/mg] | microsomal CLint [5] [µL/min/mg] | Efficacy in mouse model T. v., n/m (mice survived / total mice in group) ([6]; 1 × 10 mg/kg, intraperitoneal, monitored 60 days post treatment) | curative efficacy in the T. v.-infected mouse model ([6]; single dose of 10 mg/kg, IP) [%] | curative efficacy in the T. c.-infected mouse model ([3]; single dose of 10 mg/kg, IP) [%]
Cc1c(C(=O)N[C@H](C(=O)OCc2ccc(F)cn2)C(C)C)ccc2c1B(O)OC2 [Compound 35] | 0.15 | 0.09 | 0/4 (1 × 10) | 5.2 | 7.8 |  |  | 
Cc1c(C(=O)N[C@H](C(=O)OCc2cnccn2)C(C)C)ccc2c1B(O)OC2 [Compound 39] | 0.57 | 0.24 | 0/4 (1 × 10) | 1.6 | 3.9 |  |  | 
Cc1c(C(=O)N[C@H](C(=O)OCc2nccc(C(F)(F)F)n2)C(C)C)ccc2c1B(O)OC2 [Compound 41] | 0.78 | 0.11 | 0/4 (1 × 10) | 1.3 | 1.8 |  |  | 
Cc1c(C(=O)N[C@H](C(=O)OCc2ccc3ncccc3c2)C(C)C)ccc2c1B(O)OC2 [Compound 46] | 0.42 | 0.24 | 1/4 (1 × 10) | 7.4 | 7 |  |  | 
Cc1c(C(=O)N[C@H](C(=O)OCc2cnc3ccccc3n2)C(C)C)ccc2c1B(O)OC2 [Compound 47] | 0.2 | 0.081 | 0/4 (1 × 10) | 4.8 | 10 |  |  | 
Cc1c(C(=O)N[C@H](C(=O)OCc2ncc3ccccc3n2)C(C)C)ccc2c1B(O)OC2 [Compound 48] | < 0.005 | 0.71 | 1/4 (1 × 10) | 4 | 23 |  |  | 
Cc1c(C(=O)N[C@H](C(=O)OCc2ccc(OCCN3CCCC3)cc2)C(C)C)ccc2c1B(O)OC2 [Compound 49] | 0.39 | 68 | 2/4 (1 × 10) | 1.5 | 4 | 4/4 (1 × 10) | 100 | ≥ 50
Cc1c(C(=O)N[C@H](C(=O)OCc2cccc(CN3CCN(C)CC3)c2)C(C)C)ccc2c1B(O)OC2 [Compound 52] | 1.3 | 0.29 | 0/4 (1 × 10) | 1.8 | 6 |  |  | 
Cc1c(C(=O)N[C@H](C(=O)OCc2cccc(CN3CCOCC3)c2)C(C)C)ccc2c1B(O)OC2 [Compound 53] | 0.51 | 0.35 | 0/4 (1 × 10) | 5.4 | 6.8 |  |  | 
Cc1c(C(=O)N[C@H](C(=O)OCc2ccc(S(=O)(=O)N3CCN(C)CC3)cc2)C(C)C)ccc2c1B(O)OC2 [Compound 54] | 1 | 0.37 | 0/4 (1 × 10) | 5.5 | 3.8 |  |  | 
COC(=O)[C@@H](NC(=O)c1ccc2c(c1C)B(O)OC2)C(C)C [Compound 55] | 4.2 | 3.3 | 0/4 (1 × 10) | < 1 | 3.1 |  |  | 
